We go through 12 compounds from patent US12486239B2, “Benzotriazole compound, light absorber, and resin composition” (MITSUI CHEMICALS, INC., priority 2019, dated 2025).

Holding throughout (format): physicochemical
The nature of data set [1]: Maximum absorption wavelength and gram absorption coefficient, toluene solution 0.01 g/L (first embodiment). As to conditions: optical path length 10 mm. As to the method: The maximum absorption wavelength of the benzotriazole compound of the first embodiment is measured using a spectrophotometer (for example, Shimadzu Spectrophotometer UV-1600 manufactured by Shimadzu Corporation) at an optical path length of 10 mm using a toluene solution having a concentration of 0.01 g/L.
In Examples according to the first embodiment, the maximum absorption wavelength and the gram absorption coefficient of the benzotriazole compound were measured using a Shimadzu Spectrophotometer UV-1600 manufactured by Shimadzu Corporation at an optical path length of 10 mm using a toluene solution having a concentration of 0.01 g/L.

Data set [2] in a line: Heat resistance: TG5% decomposition temperature. As to conditions: nitrogen atmosphere, heating rate 10° C./min; for T-5% by mass: Table 2; for Decomposition temperature (Tg-5% by mass): Table 6. As to the method: In each Example and Comparative Example, the decomposition temperature was measured by the following method.
Using a thermal analyzer Rigaku ThermoPlus Evo TG8120, the TG5% decomposition temperature (T-5% by mass) was measured under a nitrogen atmosphere at a heating rate of 10° C./min and a temperature range of from room temperature to 500° C.
The higher the T-5% by mass, the higher the heat resistance.
The decomposition temperature of the benzotriazole compound obtained in each Example and Comparative Example was measured by the following method.

A short description of data set [3]: Solubility to various organic solvents. To be noted: room temperature; for Solubility to various organic solvents: PGMEA / Solubility to various organic solvents: Ethyl acetate / Solubility to various organic solvents: MEK / Solubility to various organic solvents: MMA / Solubility to various organic solvents: Toluene: Table 1. The protocol: As Comparative Example 1, the solubility of TINUVIN326 (manufactured by BASF Japan Ltd.) represented by the following Formula (TI) was measured by the following method.
To 0.5 g of the benzotriazole compound, the various organic solvents shown in Table 1 were added such that the total mass was about 10 g, the mixture was irradiated with ultrasonic waves for about 30 minutes, and thereafter stirred at room temperature for 2 hours to prepare a dispersion of about 10% by mass.
The dispersion was filtered through a membrane filter (0.2 μm), and the obtained residue was dried in a dryer at 60° C. for 1 hour, and then the mass of the residue was measured.
The solubility of the benzotriazole compound to the solvent was expressed by the following formula. Solubility (% by mass)=(W0−W1)/W0
W0 is the mass of the benzotriazole compound before the treatment, and W1 is the mass of the residue after drying (that is, the dissolution residue of the benzotriazole compound). In a case in which no residue remained on the filter, the solubility was determined as 5% by mass or more.
The solubility of the benzotriazole compound obtained in each Example and Comparative Example was measured by the following method.
To 0.5 g of the benzotriazole compound, the various organic solvents shown in Table 6 were added such that the total mass was about 10 g, the mixture was irradiated with ultrasonic waves for about 30 minutes, and thereafter stirred at room temperature for 2 hours to prepare a dispersion of about 10% by mass.

With `CCCCCNc1ccc(-n2nc3ccc(Cl)cc3n2)c(O)c1` [Compound (3)], in data set [1], the gram absorption coefficient is given as 9.77×10^4 g/mL·cm and the maximum absorption is given as 387 nm.
Taken in the same sequence, the figures for `Oc1cc(NC2CCCCC2)ccc1-n1nc2ccc(Cl)cc2n1` [Compound (4)] were 9.76×10^4 g/mL·cm and 389.5 nm.
Taken in the same sequence, the figures for `CCCCCCC(=O)N(c1ccccc1)c1ccc(-n2nc3ccc(Cl)cc3n2)c(O)c1` [Compound (22)] were 6.1×10^4 g/mL·cm and 355 nm.
Take `CCCCCCC(=O)Nc1ccc(-n2nc3ccc(Cl)cc3n2)c(O)c1` [Compound (53)]: the T-5% by mass in data set [2] is 323.5 °C. In addition, in data set [1], the gram absorption coefficient is given as 7.9×10^4 g/mL·cm and the maximum absorption is on record as 359.0 nm. The “Solubility to various organic solvents: PGMEA” value in data set [3] (PGMEA) worked out at 1 % by mass. Further, the “Solubility to various organic solvents: Ethyl acetate” value (“Solubility … Ethyl acetate” for short) in data set [3] (ethyl acetate) stood at 1 % by mass. In addition, in data set [3] (methyl ethyl ketone), the “Solubility to various organic solvents: MEK” value worked out at 1 % by mass. Further, the “Solubility to various organic solvents: MMA” value in data set [3] (methyl methacrylate) turned out to be 1 % by mass. Further, the “Solubility to various organic solvents: Toluene” value in data set [3] (toluene) stood at 0.5 % by mass.
In data set [2], `CCCCCCCCSc1ccc2nn(-c3ccc(NC(=O)CCCCCC)cc3O)nc2c1` [Compound (54)] displayed a T-5% by mass of 359.7 °C. Also, in data set [1], the gram absorption coefficient is 7.10×10^4 g/mL·cm and the maximum absorption is given as 371.0 nm. In addition, the “Solubility to various organic solvents: PGMEA” value in data set [3] (PGMEA) came to 0.3 % by mass. Also, the “Solubility … Ethyl acetate” value in data set [3] (ethyl acetate) turned out to be 0.3 % by mass. Also, the “Solubility to various organic solvents: MEK” value in data set [3] (methyl ethyl ketone) is recorded as 1 % by mass. In addition, the “Solubility to various organic solvents: MMA” value in data set [3] (methyl methacrylate) came to 0.5 % by mass. Besides, in data set [3] (toluene), the “Solubility to various organic solvents: Toluene” value was found to be 0.3 % by mass.
For `O=C(Nc1ccc(-n2nc3ccc(Cl)cc3n2)c(O)c1)c1ccccc1` [Compound (61)], in data set [1], the gram absorption coefficient is 9.37×10^4 g/mL·cm and the maximum absorption came out at 360.0 nm.
In data set [2], `CCN(CC)C(=O)Nc1ccc(-n2nc3ccc(Cl)cc3n2)c(O)c1` [Compound (81)] gave a T-5% by mass of 230.1 °C. Also, in data set [1], the gram absorption coefficient is reported as 1.07×10^5 g/mL·cm and the maximum absorption worked out at 372.5 nm.
For `CC(=O)Nc1ccc(-n2nc3ccc(Cl)cc3n2)c(O)c1` [Compound (102)], in data set [1], the gram absorption coefficient is recorded as 5.19×10^4 g/mL·cm and the maximum absorption was 347.0 nm.
In data set [2], `O=C(Nc1ccc(-n2nc3ccc(Cl)cc3n2)c(O)c1)C1CCCCC1` [Compound (103)] gave a T-5% by mass of 335.7 °C. In addition, in data set [1], the gram absorption coefficient was 8.48×10^4 g/mL·cm and the maximum absorption is listed as 359.0 nm.
`CC(C)(C)c1ccc(CSc2ccc3nn(-c4ccc(NC(=O)C5CCCCC5)cc4O)nc3c2)cc1` [Compound (104)] displayed a T-5% by mass in data set [2] of 313.1 °C. In data set [1], the gram absorption coefficient is 6.90×10^4 g/mL·cm and the maximum absorption was 371.0 nm.
`O=C1CCc2cc(-n3nc4ccc(Cl)cc4n3)c(O)cc2N1` [Compound (105)]: in data set [1], the gram absorption coefficient is on record as 7.28×10^4 g/mL·cm and the maximum absorption came to 365.5 nm.
With `Cc1cc(-n2nc3ccc(Cl)cc3n2)c(O)c(C(C)(C)C)c1` [TINUVIN326, 2-(5-chloro-2-benzotriazol)-6-tert-butyl-p-cresol, reference compound], in data set [2], the T-5% by mass was determined as 219.2 °C and the “Decomposition temperature (Tg-5% by mass)” value is 219.2 °C. Also, the “Decomposition temperature (Tg-5% by mass)” value in data set [2] (listed as Comparative Example 1C) is listed as “lower than that of Examples”. The “Solubility to various organic solvents: PGMEA” value in data set [3] (PGMEA) is recorded as 1 % by mass. Besides, the “Solubility … Ethyl acetate” value in data set [3] (ethyl acetate) is 3 % by mass. Also, the “Solubility to various organic solvents: MEK” value in data set [3] (methyl ethyl ketone) is given as 3 % by mass. Besides, in data set [3] (methyl methacrylate), the “Solubility to various organic solvents: MMA” value was 5 % by mass. For the same compound, the “Solubility to various organic solvents: Toluene” value in data set [3] (toluene) was 5 or more % by mass. In addition, in data set [3] (Table 6, PGMEA), the “Solubility: PGMEA” value came out at 1 % by mass. Besides, the “Solubility: EA” value in data set [3] (Table 6, ethyl acetate) amounted to 3 % by mass. Besides, the “Solubility: MEK” value in data set [3] (Table 6, methyl ethyl ketone) was determined as 3 % by mass. Besides, the “Solubility: MMA” value in data set [3] (Table 6, methyl methacrylate) was 5 % by mass. Moreover, the “Solubility: Toluene” value in data set [3] (Table 6, toluene) is 5≤ % by mass.
